Values joined by “and” are separate entries in the source; they are usually repeats but may differ in a detail not shown here. Equal entries are not always repeated. Where two headings read alike, the source gives them in different places.
Columns and labels:
[1] = test system: male Long-Evans rats; assay: Focal cerebral ischemia (right distal MCA cauterization with temporary bilateral CCA occlusion); assay type: in vivo; settings: 24 h, mean±SD
Method: Focal cerebral ischemia is produced by cauterization of the right distal MCA (middle cerebral artery) with bilateral temporary common carotid artery occlusion in male Long-Evans rats for 90 minutes. All procedures performed on the animals are approved by the University Institutional Animal Care and Use Committee of the University of Pennsylvania. A total of 42 rats (weights: 230–340 g) obtained from Charles River were used in this study. The animals fasted overnight with free access to water prior to the surgical procedure.
Two hours prior to MCA occlusion, varying amounts (control, n=14; 5 mg/kg, n=7; 10 mg/kg, n=7; 20 mg/kg, n=7; and 40 mg/kg, n=7) of the compound, 3,4-dihydro-5-[4-(1-piperidinyl)-butoxy]-1(2H)-isoquinolinone (“DPQ”) were dissolved in dimethyl sulfoxide (DMSO) using a sonicator. A volume of 1.28 ml/kg of the resulting solution was injected intraperitoneally into […].
The rats were then anesthetized with halothane (4% for induction and 0.8%–1.2% for the surgical procedure) in a mixture of 70% nitrous oxide and 30% oxygen. The body temperature was monitored by a rectal probe and maintained at 37.5±0.5° C. with a heating blanket regulated by a homeothermic blanket control unit (Harvard Apparatus Limited, Kent, U.K.). A catheter (PE-50) was placed into the tail artery, and arterial pressure was continuously monitored and recorded on a Grass polygraph recorder (Model 7D, Grass Instruments, Quincy, Mass.). Samples for blood gas analysis (arterial pH, PaO2 and PaCO2) were also talcen from the tail artery catheter and measure with a blood gas analyzer (ABL 30, Radiometer, Copenhagen, Denmark). Arterial blood samples were obtained 30 minutes after MCA occlusion.
The head of the animal was positioned in a stereotaxic frame, and a right parietal incision between the right lateral canthus and the external auditory meatus was made. Using a dental drill constantly cooled with saline, a 3 mm burr hole was prepared over the cortex supplied by the right MCA, 4 mm lateral to the sagittal suture and 5 mm caudal to the coronal suture. The dura mater and a thin inner bone layer were kept, care being taken to position the probe over a tissue area devoid of large blood vessels. The flow probe (tip diameter of 1 mm fiber separation of 0.23 mm) was lowered to the bottom of the cranial burr hole using a micromanipulator. The probe was held stationary by a probe holder secured to the skull with dental cement. The microvascular blood flow in the right parietal cortex was continuously monitored with a laser Doppler flowmeter (FloLab, Moor, Devon, U.K., and Periflux 4001, Perimed, Stockholm, Sweden). […]

[2] = test system: PARP; settings: read-out: IC50 for inhibiting PARP; reported by Suto et al.; cited from earlier work
[3] = test system: Swiss albino mice; assay: Gout model: MSU crystal-induced neutrophil recruitment (peritonitis); assay type: in vivo
Method: Male outbread Swiss albino mice (20–22 g body weight) were purchased from Banton and Kingsman (T.O. strain; Hull, Humberside) and maintained on a standard chow pellet diet with tap water ad libitum and a 12:00 h light dark cycle. All animals were housed for 1 week prior to experimentation to allow body weight to reach 23–30 g.
1.11b-dihydrobenzopyrano[4,3,2-de]isoquinolin-1-one was dissolved in 100% DMSO at room temperature at a concentration of 45 mg in 2 ml. The compound was then injected into the peritoneal cavity, so as each mouse received a single dose corresponding to 45 mg/2 ml/kg (e.g. 60 μl for a mouse of 30 g). Control mice received DMSO at 2 ml/kg i.p. A third group of mice which were left untreated were added to control for potential effects of the vehicle. The study involved therefore, the following three groups: group A, untreated mice, n=6, group B, DMSO-treated mice, n=8, and group C, mice treated with 1.1 lb-dihydrobenzopyrano[4,3,2-de]isoquinolin-1-one, n=8
MSU crystal-induced neutrophil recruitment was tested as follows. In all cases, mice were treated 1 h after the treatment noted above, with MSU crystals. A homogenous suspension of MSU crystals was obtained by a 30 min rotation. Peritonitis was induced by injection of 3 mg MSU crystals in 0.5 ml PBS (0.1 M, pH 7.4), and the recruitment of neutrophils into the cavity evaluated at the 6 h time point (Gerting et al., 1997, J. Pharmacol. Exp. Ther. 233: 123–130). Animals were then euthanised by CO2 exposure and the peritoneal cavity washed with 3 ml of PBS supplemented with 3 mM EDTA and 25 U/ml heparin.
An aliquot (100 μl) of the lavage fluid was then diluted 1:10 in Turk's solution (0.01% crystal violet in 3% acetic acid). The samples were then vortexed and 10 μl of the stained cell solution were placed in a Neubauer haematocymometer and neutrophils numbers counted using a light microscope (Olympus B061). […]
Data are shown for single mice, and also shown as mean±S.E. of (n) mice per group. Statistical differences were determined by ANOVA, plus Bonferroni test. […]

[4] = test system: rabbits; settings: cited from earlier work
[5] = biological target: T1, purified recombinant human PARP (Homo sapiens, UniProt P09874); assay: PARP enzyme assay with [3H]NAD, scintillation counting; assay type: biochemical
T1 construct: purchased Trevigan (Gaithersburg, Md.)
Method: The reaction is initiated by incubating the mixture at 25° C. After 15 minutes of incubation, the reaction is terminated by adding 500 microliters of ice cold 20% (w/v) trichloroacetic acid. The precipitate formed is transferred onto a glass fiber filter (Packard Unifilter-GF/B) and washed three times with ethanol. After the filter is dried, the radioactivity is determined by scintillation counting.
Using the PARP assay described above, approximate IC50 (μM) values were obtained as shown in the following Table III, which also include specific embodiments of the compounds of the present invention: […]

[6] = Table III, read-out: approximate IC50

T1 sequence (P09874 whole entry): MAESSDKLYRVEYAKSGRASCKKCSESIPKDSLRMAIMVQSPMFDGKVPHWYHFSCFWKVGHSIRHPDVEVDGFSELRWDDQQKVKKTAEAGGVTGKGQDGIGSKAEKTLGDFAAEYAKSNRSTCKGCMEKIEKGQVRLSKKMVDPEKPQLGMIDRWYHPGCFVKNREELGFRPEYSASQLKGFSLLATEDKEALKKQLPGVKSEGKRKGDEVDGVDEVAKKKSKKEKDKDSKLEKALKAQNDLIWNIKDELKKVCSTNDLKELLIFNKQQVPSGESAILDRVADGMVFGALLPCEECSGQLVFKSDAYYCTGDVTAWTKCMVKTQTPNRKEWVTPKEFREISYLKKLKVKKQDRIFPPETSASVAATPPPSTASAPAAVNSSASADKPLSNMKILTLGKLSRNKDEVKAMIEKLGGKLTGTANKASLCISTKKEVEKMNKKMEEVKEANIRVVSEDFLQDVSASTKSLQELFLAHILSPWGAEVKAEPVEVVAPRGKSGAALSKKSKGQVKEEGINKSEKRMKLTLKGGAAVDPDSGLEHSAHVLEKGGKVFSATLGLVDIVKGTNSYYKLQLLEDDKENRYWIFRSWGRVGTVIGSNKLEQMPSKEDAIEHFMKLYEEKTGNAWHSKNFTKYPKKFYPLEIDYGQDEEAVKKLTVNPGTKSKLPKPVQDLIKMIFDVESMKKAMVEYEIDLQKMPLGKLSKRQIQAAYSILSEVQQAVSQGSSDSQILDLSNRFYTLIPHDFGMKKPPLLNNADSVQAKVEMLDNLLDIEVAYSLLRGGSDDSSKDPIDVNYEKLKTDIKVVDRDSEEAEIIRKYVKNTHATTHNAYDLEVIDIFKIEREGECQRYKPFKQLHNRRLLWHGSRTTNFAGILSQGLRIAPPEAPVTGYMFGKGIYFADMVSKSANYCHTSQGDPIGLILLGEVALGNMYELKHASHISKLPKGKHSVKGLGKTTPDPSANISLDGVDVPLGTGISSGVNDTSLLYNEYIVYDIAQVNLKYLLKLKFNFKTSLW

Which “damaged volume (infarct volume)” value ([1]; 5 mg/kg i.p. 2 h before and 2 h after MCA occlusion, control 165.2±34.0, p<0.001) does the source give for `O=C1NCCc2c(OCCCCN3CCCCC3)cccc21` [DPQ, 3,4-dihydro-5-[4-(1-piperidinyl)-butoxy]-1(2H)-isoquinolinone] here?
The value was 106.7±23.2 mm^3.

And the “damaged volume (infarct volume)” value ([1]; 10 mg/kg i.p. 2 h before and 2 h after MCA occlusion, control 165.2±34.0, p<0.001)?
Its value is 76.4±16.3 mm^3.

What about the “damaged volume (infarct volume)” value ([1]; 20 mg/kg i.p. 2 h before and 2 h after MCA occlusion, control 165.2±34.0, p<0.01) of the same compound?
The value was 110.2±42.0 mm^3.

What about the “damaged volume (infarct volume)” value ([1]; 40 mg/kg i.p. 2 h before and 2 h after MCA occlusion, no significant difference from control 165.2±34.0) of the same compound?
Its value is 135.6±44.8 mm^3.

What about the IC50 [2] of the same compound?
Its IC50 is 40 nM.

With `O=C1N=Cc2cccc3c2C1c1ccccc1O3` (stereo not shown) [1,11b-dihydrobenzopyrano[4,3,2-de]isoquinolin-1-one] as the compound, how does the “inhibition of cell influx vs. the vehicle group” value ([3]; 45 mg/kg i.p., MSU crystals, 6 h) read?
The value was 55%.

What about the “Neutrophil Numbers (single mice)” value ([3]; group C, 45 mg/kg i.p. 1 h prior to 3 mg MSU crystals, peritoneal lavage at 6 h, one value per mouse, 45 mg/kg) of the same compound?
Its value is 2.4 10^6 per mouse (2×) and 3.0 10^6 per mouse (2×) and 2.7 10^6 per mouse and 2.1 10^6 per mouse (2×) and 5.1 10^6 per mouse.

And the “Neutrophils (10^6 per mouse), mean ± S.E.” value ([3]; group C, 45 mg/kg i.p., MSU crystals (3 mg), 6 h, n=8, P<0.05 vs. vehicle group B (6.30 ± 0.33))?
The value was 2.85 ± 0.34 (8)* 10^6 per mouse.

Which “reduction in infarct size” value ([4]; single injection 1 mg/kg) does the source give for `Oc1cccc2c(O)nccc12` [1,5-dihydroxyisoquinoline] here?
The value was 38–42%.

With `NC(=O)c1cccc(N)c1` [3-aminobenzamide] as the compound, how does the “reduction in infarct size in the heart” value ([4]; single injection 10 mg/kg, one minute before occlusion or one minute before reperfusion) read?
Its value is 32–42%.

What does the source list for `CN(C)CCN(C)S(=O)(=O)c1ccc2[nH]c(=O)c3cccc4c3c2c1C4` [Example 17]?
IC50 [5, 6]: 154 nM; IC50 ([5]; examples table, read-out: IC50): 154 nM

What does the source list for `CN(C)CCCN1CCN(CC(=O)Nc2ccc3[nH]c(=O)c4cccc5c4c3c2C5)CC1` [Example 49]?
IC50 [5, 6]: 72 nM; IC50 ([5]; examples table, read-out: IC50): 72 nM

For `CN1CCC(CN2CCN(CC(=O)Nc3ccc4[nH]c(=O)c5cccc6c5c4c3C6)CC2)CC1` [Example 52], which IC50 [5, 6] is on record?
Its IC50 is 96 nM.

What about the IC50 ([5]; examples table, read-out: IC50) of the same compound?
The IC50 was 96 nM.

— patent US7157452B2, “Substituted 4,9-dihydrocyclopenta{imn}phenanthridine-5-ones derivatives thereof and their uses” (MGI GP, Inc., priority 2001, dated 2007)
